# Data taken from patent US20090258914A1, “Inhibitor of Anti-Apoptotic Proteins” (Burnham Institute for Medical Research, priority 2008, published 2009).
# Tests used:
# [1] = biological target: T1, BCL-xL (Homo sapiens, UniProt Q07817); test: Dissociation constant (Kd) / binding to BCL-xL
# T1 construct: Recombinant full length BCL-XL was produced from a pET-19b (Novagen) plasmid construct; poly-His (N); made in house; host or cells: E. coli BL21
# Experimental: The inhibition was also evaluated by measuring dissociation constant (Kd) values for compound A in comparison with some related compounds 1, 2, and 3.
# For all NMR experiments, BCL-xL was exchanged into 50 mM phosphate buffer at pH 7.5 and measurements were performed at 30° C. 2D [^15N,^1H]-HSQC spectra for BCL-xL were measured with 0.5 mM samples of ^15N-labeled protein. All experiments were performed with a 600 MHz Bruker Avance spectrometer, both equipped with either a TXI probe or a TCI cryoprobe. In all experiments, dephasing of residual water signals was obtained with a WATERGATE sequence. In order to test the ability of test compounds to bind to Bcl-xL, a 25 μM sample of the protein was prepared and 1D ^1H NMR spectra were collected in absence and presence of test compounds. By observing the aliphatic region of the spectra, binding can be readily detected in these simple experiments due to chemical shift changes in active site methyl groups of Ile, Leu, Thr, Val or Ala (region between 0.8 and 0.3 ppm).
# [2] = Plasma stability; format: in vitro ADME
# [3] = Microsomal stability; format: in vitro ADME
# [4] = system: B6Bcl2 mice; test: Spleen shrinkage / in vivo efficacy in B6Bcl2 transgenic mice; design: species or system mouse; details: for in vivo activity / order of potency in terms of in vivo efficacy: B6BCL-2 transgenic mouse
# Excerpt: In the same model, another known compound apogossypolone was not effective. Gossypol is described, e.g., in U.S. Pat. No. 7,186,708. Apogossypol is described, e.g., in Meyers A. I.; Willemsen J. J., Tetrahedron Letters, vol. 37, No. 6, February, […], pp. 791-792.
# (§1) Compound A was given to B6Bcl2 mice at a daily dose of […] for 3 days through oral gavage. […] Both compound A and the negative control were preliminarily dissolved in PBS. After 3 days, the spleens of the animals were removed and weighed.
# (§2) In parallel experiments, compound A was also administered intraperitoneally at […], as were some related compounds, such as compounds 1 and 2 shown in Table 1, above. In these experiments, after 24 hours, the spleens of the animals were removed and weighed.
# (§3) The results of efficacy of compound A administered intraperitoneally were also compared with the results obtained when compound A was administered orally. […] Accordingly, compound A can be administered in both ways, orally or intraperitoneally. […] It was also shown that compound A can be administered safely.
# [5] = system: A549L; test: Cell viability IC50, A549L; format: cell-based; details: mean ± standard deviation of three independent experiments
# Experimental: (§4) The effectiveness of compound A was also evaluated, in comparison with compound 1 shown in Table 1, by determining mean IC50 values, which were measured for three independent experiments (each in triplicate) for compounds 1 and A. All points were normalized to control as a percentage of cell viability and statistics were completed with Graphpad Prism software.
# [6] = system: H460; test: Cell viability, H460; format: cell-based; details: for IC50: Homo sapiens, NCI-H460, cell viability, mean ± standard deviation of three independent experiments
# Experimental: (§5) The inhibition information for cells H460 and PC3ML is also shown by FIG. 2. […] The structures of compounds 1-3 are shown in Table 1, above, and the structure of compound 4 is as follows:
# as §4
# [7] = system: RS11846S; test: Cell viability IC50, RS11846S; format: cell-based; details: mean ± standard deviation of three independent experiments
# Experimental: as §4
# [8] = system: PC3ML; test: Cell viability, PC3ML; format: cell-based; details: for IC50: PC3-ML, cell viability, mean ± standard deviation of three independent experiments
# Experimental: as §5, §4
# [9] = system: B6Bcl2 mice; test: Safety in B6Bcl2 mice (weight loss, physical exam); format: in vivo, mouse; details: regardless of route of administration (oral or intraperitoneal)
# Experimental: as §1, §2, §3
# [10] = FIG. 2, in comparison with compounds 1-4
# T1 sequence (Q07817 whole entry, species assumed): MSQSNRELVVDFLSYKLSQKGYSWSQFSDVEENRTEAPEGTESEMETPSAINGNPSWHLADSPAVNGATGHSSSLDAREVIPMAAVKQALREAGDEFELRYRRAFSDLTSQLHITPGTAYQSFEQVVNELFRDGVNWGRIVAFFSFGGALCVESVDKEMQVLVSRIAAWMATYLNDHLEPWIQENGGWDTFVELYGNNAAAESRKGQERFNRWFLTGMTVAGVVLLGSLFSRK
Compound,Kd [1],"Plasma Stability, % (45 minutes) [2]","Microsomal Stability, % (45 minutes) [3]",in vivo activity [4],IC50 [5],IC50 [6],IC50 [7],IC50 [8],order of potency in terms of in vivo efficacy [4],further results
CC(=C\c1ccccc1)/C=C1/SC(=S)N(C(C(=O)O)C(C)C)C1=O (stereo not drawn) [Compound 3],11.8 µM,51%,75%,,,,,,,
apogossypolone,,,,not effective,,,,,,
"O=C(O)CN1C(=O)S/C(=C\c2ccc(-c3ccccc3)cc2)C1=O [Compound A, (Z)-2-(5-(biphenyl-4-ylmethylene)-2,4-dioxothiazolidin-3-yl)acetic acid]",14 µM,58%,72%,"equal to, or better than, known compounds gossypol and apogossypol",0.8 ± 0.3 µM,500 ± 300 nM,0.4 µM,0.7 ± 0.6 µM,compound A>apogossypol=gossypol,"influence on the cell viability [6, 10]: largest influence on the cell viability; influence on the cell viability [8, 10]: largest influence on the cell viability; shrinkage of spleen ([4]; either route, orally or intraperitoneally): induced shrinkage of spleen; degree of shrinkage of spleen, intraperitoneal injection higher than oral dosing ([4]; intraperitoneal vs oral, FIG. 4): about 100%; degree of shrinkage of spleen higher than that induced by compounds 1 or 2 ([4]; intraperitoneally at 60 mmol/kg, spleens weighed after 24 hours, FIG. 3): about 40%; weight loss or signs of toxicity via physical exam [9]: no weight loss or signs of toxicity"
Cc1cc2c(C(C)C)c(O)c(O)cc2c(O)c1-c1c(C)cc2c(C(C)C)c(O)c(O)cc2c1O [apogossypol],,,,,,,,,compound A>apogossypol=gossypol,

# The next lines start with results.
Kd [1],"Plasma Stability, % (45 minutes) [2]","Microsomal Stability, % (45 minutes) [3]",Compound,in vivo activity [4],IC50 [5],IC50 [6],IC50 [7],IC50 [8],order of potency in terms of in vivo efficacy [4],further results
1.1 µM,56%,54%,CC(C)C(C(=O)O)N1C(=O)/C(=C\c2ccc(Br)cc2)SC1=S (stereo not drawn) [Compound 1],,12.2 ± 5.9 µM,3000 ± 2400 nM,6.5 ± 10 µM,60.9 ± 1.6 µM,,
0.16 µM,59%,22%,CC(C)C(C(=O)O)N1C(=O)/C(=C\c2ccc(-c3ccccc3)cc2)SC1=S (stereo not drawn) [Compound 2],,,,,,,
